Results: patent publication US11234960B2, “Compositions and methods for improving mitochondrial function and treating neurodegenerative diseases and cognitive disorders” (Amazentis SA, priority 2010, dated 2022)

Tests used:
normal mice = test: Contextual fear conditioning (contextual memory) in normal mice; type: in vivo; details: punicalagin approx. 90 mg/kg/day 3 months; for contextual memory, freezing 24 hours after training: urolithin A approx. 55 mg/kg/day 2.5 months (FIG. 46); for memory retention, extinction of contextual memory over days 1-5: urolithin A approx. 55 mg/kg/day 2.5 months (FIG. 47)
Protocol: Beginning at 3 months of age, mice were either fed (i) a standard control diet such as AIN-93G; (ii) a diet containing punicalagin at a concentration of […], so as to deliver an approximate dose of 90 mg/kg/day (for a period of 3 months); or (iii) a diet containing urolithin A at a concentration of […], so as to deliver an approximate dose of 55 mg/kg/day (for a period of 2.5 months). Actual doses vary slightly depending on the food consumption of each individual mouse, as well as the weight of the mouse. Behavioral assessment of cognition was measured after this period.
To examine the effect of pomegranate-derived compounds on memory and cognition, mice were examined for improvements in contextual memory utilizing the contextual fear conditioning assay. Mice were trained in a fear conditioning chamber as described in Example 19.
During training, animals were placed into the chamber one at a time. After four minutes of exploration inside the chamber, one foot shock (2 seconds and 0.4 mA) was administered, followed by a second foot shock (2 seconds and 0.4 mA) one minute later. Thirty seconds after the second foot shock, the mouse was placed back into its home cage.
One day later, trained animals were returned to the chamber for a period of three minutes. During this period mice were monitored for their movement. The amount of time spent immobile or “frozen” was scored as a percentage of the total time (3 minutes) under observation. The time spent immobile is a measure of the strength of the memory of the mice to recall the context in which they were trained.
To determine the effect of these pomegranate-derived compounds on memory retention, normal mice fed either (i) a control diet; (ii) punicalagin (for a period of 3 months) or (iii) urolithin A (for a period of 2.5 months) were studied for their memory recall on days 1, 2, 3, 4 and 5 after the initial contextual fear training.
Animals were placed in the same chamber and context for 3 min daily (same time of day, however no shock this time) for the 5 days that followed the initial testing. Freezing behavior induced by the simple contextual recognition by the animals of the chamber, where they received the initial shock, was measured during each of these daily 3-minute periods. The ability to recognize this environment in the absence of the stimulus is a measurement of contextual memory.

[1] = system: C57BL6/J mice fed standard chow diet; test: Body composition (EchoMRI) in standard chow diet fed mice; type: in vivo; details: 2 weeks of treatment, ellagic acid 75 mkd; for percentage of lean mass (EchoMRI): urolithin A 55 mkd food admix (FIG. 18A); for percentage of fat mass (EchoMRI): urolithin A 55 mkd food admix (FIG. 18B)
Text: Male C57BL6/J mice were purchased from Charles River Laboratory (L'Arbresle, France) at the age of 7 weeks and acclimatized to the animal facility for 2 weeks before initiation of experiments. Mice were housed in groups of 5 in standard housing conditions, with a 12 hr light-dark cycle and free access to food and water. Beginning at 9 weeks of age, mice were fed a high-fat diet (HFD) (60% kcal from fat; D12492; Research Diets Inc., New Brunswick, N.J., USA) for fourteen weeks. Body weight was monitored weekly.
Mice in different treatment groups were administered (i) urolithin A mixed with food (food admix) to reach a dosing of 55 mg/kg body weight/day (mkd); (ii) ellagic acid mixed with food (food admix) to reach a dosing of 75 mkd; (iii) punicalagin (gavage) to reach a dosing of 90 mkd; or (iv) pomegranate extract (PE) (gavage) to reach a dosing of 140 mkd of total polyphenols. A typical pomegranate extract used in these experiments had the following composition: polyphenols, 140 mkd; punicalagin, 13.1 mkd; and ellagic acid, 13.2 mkd. For animals treated by gavage, gavage was performed daily (7 days/week) between 8:00 and 10:00 a.m.; compounds were mixed with saline solution (0.9% NaCl) and provided at a final volume of 5 mL/kg of body weight. Mice in high-fat control groups were fed with the same diet as the experimental animals. Mice in corresponding different control groups were administered either high-fat diet alone or high-fat diet plus daily gavage with vehicle (saline). Another control group of mice were fed standard chow diet alone.
Body composition was monitored by EchoMRI (Echo Medical Systems, Houston, Tex., USA) 5 weeks after the initiation of the treatment for high-fat diet fed mice and 2 weeks after the initiation of the treatment for chow diet fed mice. Animals were placed individually into a plastic cylinder and then introduced into an EchoMRI system for about 2 min for body composition scanning (lean and fat mass).

PC-12 cells = test: Neurite outgrowth in NGF-differentiated PC-12 cells; type: cell-based, rat; details: 0.5 μM; for percent of cells showing significant outgrowth (>20 μm), increase vs differentiated cells: 72 h (FIG. 8); for number of processes, increase: 72 h, differentiated PC-12 cells (FIG. 9)
Protocol: The ellagitannins and their metabolites tested in the assays were synthesized or purchased from suppliers which included Funakoshi, Sigma, and Chemos. Stock solutions were aliquoted and stored at −20° C.
PC-12 cells (ATCC CRL-1721) were cultured at 37° C., 5% CO2 in poly L-lysine-coated culture flasks in complete culture medium (RPMI 1640+10% heat-inactivated horse serum+5% fetal bovine serum).
Cell differentiation was performed in culture flasks 24 h after plating, in complete medium supplemented with 100 ng/mL NGF (2.5 S NGF, Invitrogen). The NGF-supplemented medium was renewed every third day, and differentiation was induced over an 8-day period.
All compounds to be tested were prepared just before the experiment as a 50 mM stock solution in dimethylsulfoxide (DMSO). The final DMSO concentration was 0.1% in the medium of all experimental groups.
For neurite outgrowth measurements, differentiated cells were washed with phosphate-buffered saline (PBS), collected after detachment and replated at a density of 5,000 cells/well (biocoat imaging 96 well plate) in complete medium supplemented with 100 ng/mL NGF, with or without 10 μM SP600125 (negative control), 1 mM dbcAMP (positive control), or tested compound at 5×10^−7 M. In the undifferentiated control group, no NGF was added after replating.
After 72 h in culture, PC-12 cells were washed with PBS and fixed in 1% paraformaldehyde solution for 20 minutes. After 3 washes with PBS, immunofluorescence labeling was performed with Texas Red Maleimide probe, which reacts with thiol groups of cysteine residues of proteins, permitting the visualization of the entire cell morphology, including neurites.
Immunofluorescence analysis was performed in automated confocal microscopy. Images were acquired with a BD pathway 855 system, under X20 objective with 8×8 field montage. Neurite outgrowth was then measured from acquired images with the neurite module of Metamorph® software. Total and mean outgrowth, total and mean number of processes per cell, and total and percentage of cells with extensive outgrowth (defined as outgrowth longer than 20 μm) were analyzed.

Structure (SMILES)	contextual memory, freezing 24 hours after training (normal mice)	memory retention, extinction of contextual memory over days 1-5 (normal mice)	percentage of lean mass (EchoMRI) [1]	percentage of fat mass (EchoMRI) [1]	percent of cells showing significant outgrowth (>20 μm), increase vs differentiated cells (PC-12 cells) [%]	number of processes, increase (PC-12 cells) [%]
O=c1oc2cc(O)ccc2c2ccc(O)cc12 [urolithin A, 3,8-Dihydroxydibenzo-α-pyrone]	significant improvements in contextual memory	improved memory retention	statistically significant increase in the percentage of lean mass	reduction in fat mass	26	15.7
O=c1oc2c(O)c(O)cc3c(=O)oc4c(O)c(O)cc1c4c23 [ellagic acid]	–	–	statistically significant increase in the percentage of lean mass	reduction in fat mass	–	–
O=C1O[C@H]2[C@@H]3OC(=O)c4cc(O)c(O)c(O)c4-c4c(O)c(O)c5oc(=O)c6c(c(O)c(O)c7oc(=O)c4c5c76)-c4c(cc(O)c(O)c4O)C(=O)OC[C@H]3OC(O)[C@@H]2OC(=O)c2cc(O)c(O)c(O)c2-c2c1cc(O)c(O)c2O (mixture of isomers) [punicalagin, 2,3 hexahydroxydiphenoyl-4,6-gallagylglucose]	significant improvements in contextual memory	improved memory retention	–	–	> 26	26.3
